Experimental data taken from patent publication US20250228864A1, “THERAPIES FOR THE TREATMENT OF INFLAMMATORY BOWEL DISEASE” (Gilead Sciences, Inc., priority 2023, published 2025).

Assays:
[1] = system: IL10−/− knockout mouse colitis model; assay: Example 2: efficacy in mouse IL10−/− knockout colitis model; type: in vivo; conditions: 21 days
Experimental: The following study was conducted to evaluate the efficacy of an α4β7 integrin small molecule inhibitor relative to no treatment and to an IL-12/IL-23 inhibitor (anti-p40 antibody a murine surrogate of ustekinumab). […] Endpoint analysis included measurement of colon lamina propria lymphocytes, and histology scoring of the colon tissue.
Mice were treated for three (3) weeks with Formula (III) mixed with food chow (0.125%), and 4 mg/kg anti-p40 dosed intraperitoneally every four (4) days […].
(§1) Female IL-10 deficient C57CL/6 mice (aged 12 weeks at study inception) were used in this study. All animal experiments were conducted according to Swiss animal well fare law and approved by the local animal welfare authority of Zurich County (Tierversuchskommission Zürich, Zurich, Switzerland, License No. ZH256-2014).
Mice were administered either standard chow diet (Harlan Teklad Global Diets 2014, TD2014) or standard chow diet plus 0.125% of in chow. Formula (III) schedule was ad libitum while the Anti-p40 antibody was administered via intraperitoneal injection on day 1 and then every four days for three weeks.
The compound was added and mixed into the chow powder at 0.125% concentration, anti-p40 antibody was diluted in phosphate buffered saline (2 mg/mL) (anti-p40 antibody, a murine surrogate of ustekinumab) then dosed at 4 mg/kg every four days by intraperitoneal injection. […] The mice were then treated for three (3) weeks (21-days). On Day 21, mice were sacrificed, blood and tissue samples were collected for further analysis. While untreated IL-10−/− knockout mice progressively lost body weight and manifested colitis activity (measured by weight loss, stool frequency and stool consistency).
Mice were anesthetized with and mixture of ketamine (90-120 mg/kg-1 body weight, Vétoquinol, Bern, Switzerland) and Xylazine (8 mg/kg-1 body weight, Bayer, Lyssach, Switzerland) by intraperitoneal injection. Colonoscopies were performed as described in Becker C, Fantini M C, Neurath M F. High resolution colonoscopy in live mice. Nat. Protoc, 2006; 1:2900-4. The procedure was recorded with a Karl Storz Tele Pack Pal 20,043,020 (Karl Storz Endoskope, Tuttlingen, Germany). Scoring of the colonoscopy was done in accordance with the Murine Endoscopic Index of Colitis Severity (MEICS) scoring system as described in Becker C., Fantini M. C., Neurath M. F. High resolution colonoscopy in live mice. Nat. Protoc. 2006; 1:2900-2904. doi: 10.1038/nprot.2006.446. The following five (5) parameters were assessed: (1) transparency of the colon; (2) changes of the vascular pattern; (3) fibrin visible; (4) granularity of the mucosal surface; and (5) stool consistency.
Tissue Extraction: Mouse colons were extracted and fixed in 4% formalin, embedded in paraffin and then cut into 5-μm sections. The colon sections where then deparaffinized and stained with hematoxylin and eosin.
Mouse colons were extracted and opened up in a longitudinal orientation, placed in a 15 mL falcon tube, rinsed with PBS (Gibco, Thermo Fisher Scientific, Carlsbad, CA, USA). The colon was then cut into 2 mm^2 sized samples and washed with 2% FBS HBSS (Thermo Fisher Scientific). The supernatant was discarded, resuspended in HBSS supplemented with 2 mM EDTA (Thermo Fisher Scientific) and then incubated at 37° C. on a shaker (300 rpm) for 15 minutes. Upon completion of the incubation the tubes were vigorously shaken, the supernatant was carefully discarded, and the sample was washed with HBSS. Next, the samples were resuspended in a digestion buffer consisting of Dispase (0.6 mg/mL, Gibco) supplemented Collagenase IV (0.4 mg/mL; Clostridium Histolyticum, Sigma-Aldrich). The solution was incubated for 20 minutes on a 37° C. shaker (300 rpm). Upon completion, the samples were homogenized by passing the solution through a 18+1.5-gauge needle. Samples where then stained with TH1, TH17, Neutrophils, and Treg antibodies followed by preforming Flow cytometry analysis of the mice immune cells of the colon tissue. […]

[2] = system: IL-10−/− mouse colitis model; assay: Example 3: Formula (III) and anti-p40 combination in IL-10−/− mouse colitis model; type: in vivo; conditions: 21 days; Formula (III) 0.005% in chow, anti-p40 IP; vs no treatment control / either pathway alone
Experimental: The following experiments were run to evaluate the effects of a combination treatment of Formula (III) in combination with an anti-p40 antibody on the IL-10−/− mouse colitis model compared to the single treatment alone.
as §1
Mice were administered either standard chow diet (Harlan Teklad Global Diets 2014, TD2014) or standard chow diet plus 0.005% of Formula (III) in the chow. Formula (III)'s schedule was ad libitum while the anti-p40 antibody was administered via an intraperitoneal injection on day 1 and then every four days for three weeks.
The compound was added and mixed to the chow powder at 0.125% concentration, anti-p40 antibody was diluted in phosphate buffered saline (2 mg/mL) (anti-p40 antibody is a murine surrogate of ustekinumab) then dosed at either 2 mg/kg (low dose) or 4 mg/kg (high dose) every four days by intraperitoneal injection. […] The mice were then treated for three (3) weeks (21-days). On Day 21, mice were sacrificed, blood and tissue samples were collected for further analysis.
Experiments were conducted as describe in Experiment 2.

CCOC(=O)[C@H](Cc1ccc(-n2c(=O)c3ccncc3n(C)c2=O)c2ncccc12)NC(=O)c1c(C)cc(N2CCOC[C@@H]2C(F)(F)F)cc1F (atropisomer, axis not shown) [Formula (III)]
disease activity (weight loss, stool frequency, stool consistency) ([1]; 0.125% in chow ad libitum): reduced disease activity
body weight loss ([1]; 0.125% in chow ad libitum, vs untreated IL-10−/− mice): ameliorated body weight loss
TH1 cells in colon tissue (flow cytometry) ([1]; 0.125% in chow): significantly reduced
TH17 cells in colon tissue (flow cytometry) ([1]; 0.125% in chow): significantly reduced
frequency of the Treg in colon tissue (flow cytometry) ([1]; 0.125% in chow): without affecting
neutrophils in colon tissue (flow cytometry) ([1]; 0.125% in chow): significantly reduced
histopathology score ([1]; 0.125% in chow, compared to the non-treatment group): reduced histopathology score
colonoscopy score (MEICS) ([1]; 0.125% in chow, over the non-treatment group): significantly improved
proinflammatory cytokines detected in the blood [1]: reduced proinflammatory cytokines
intestine inflammation ([1]; single agent): significantly ameliorates
body weight loss [2]: improved body weight loss
